Bounds are passed on as bounds.

For 1 molecule, inhibition and IC50 results are on record in ChEMBL document CHEMBL5661979, “Pharmacological inhibition of BMK1 suppresses tumor growth through promyelocytic leukemia protein” (Cancer Cell, 2010).

Test [1] deals with T1, Mitogen-activated protein kinase kinase kinase kinase 2 (Homo sapiens) (UniProt Q12851).
T1 sequence (whole entry): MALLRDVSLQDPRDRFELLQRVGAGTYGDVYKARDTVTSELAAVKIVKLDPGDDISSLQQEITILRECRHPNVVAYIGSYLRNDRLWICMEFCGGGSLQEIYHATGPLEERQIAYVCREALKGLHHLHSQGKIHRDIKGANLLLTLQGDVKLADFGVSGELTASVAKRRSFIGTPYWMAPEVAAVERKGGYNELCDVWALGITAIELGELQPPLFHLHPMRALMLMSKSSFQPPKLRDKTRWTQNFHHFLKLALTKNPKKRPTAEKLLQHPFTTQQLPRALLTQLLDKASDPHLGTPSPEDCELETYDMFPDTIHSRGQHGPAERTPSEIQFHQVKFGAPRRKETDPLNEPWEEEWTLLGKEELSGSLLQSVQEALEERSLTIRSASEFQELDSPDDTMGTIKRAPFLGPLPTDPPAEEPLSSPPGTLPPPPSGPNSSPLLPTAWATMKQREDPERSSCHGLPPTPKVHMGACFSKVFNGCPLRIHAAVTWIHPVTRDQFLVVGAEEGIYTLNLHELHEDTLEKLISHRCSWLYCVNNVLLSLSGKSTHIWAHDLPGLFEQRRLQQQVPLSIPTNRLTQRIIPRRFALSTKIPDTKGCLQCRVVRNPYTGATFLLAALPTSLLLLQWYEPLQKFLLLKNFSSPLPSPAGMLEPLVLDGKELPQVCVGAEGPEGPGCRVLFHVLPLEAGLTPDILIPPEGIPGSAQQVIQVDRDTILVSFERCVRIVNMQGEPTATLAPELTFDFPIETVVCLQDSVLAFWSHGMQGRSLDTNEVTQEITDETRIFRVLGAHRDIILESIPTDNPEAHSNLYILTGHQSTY
The experiment in a line: Inhibition of GCK in human HeLa cells lysate at 10 uM pre incubated for 15 mins followed by ADP acyl phosphate probe addition and measured after 10 mins by LC-MS/MS analysis relative to control. It counts as subcellular. To be noted: time 25.0 min.

The target of test [2] is T2, EKC/KEOPS complex subunit TP53RK (Homo sapiens) (UniProt Q96S44).
T2 sequence (whole entry): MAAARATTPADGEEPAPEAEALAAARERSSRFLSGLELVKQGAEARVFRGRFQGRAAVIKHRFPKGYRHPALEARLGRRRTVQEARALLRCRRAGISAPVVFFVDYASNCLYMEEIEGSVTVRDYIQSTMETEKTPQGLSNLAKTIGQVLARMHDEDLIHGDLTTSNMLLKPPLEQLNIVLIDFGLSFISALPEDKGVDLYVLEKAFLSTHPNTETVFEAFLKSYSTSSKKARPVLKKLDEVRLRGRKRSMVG
The experiment in a line: Inhibition of PRPK in human HeLa cells lysate at 2 uM pre incubated for 15 mins followed by ADP acyl phosphate probe addition and measured after 10 mins by LC-MS/MS analysis relative to control. It counts as subcellular. To be noted: time 25.0 min.

Test [3] can be described thus: Inhibition of HGK/MINK/TNIK in human HeLa cells lysate at 10 uM pre incubated for 15 mins followed by ATP acyl phosphate probe addition and measured after 10 mins by LC-MS/MS analysis relative to control. The settings on record: 25 min, condition cancer.
In test [4] the target is Microtubule-associated serine/threonine-protein kinase 3 (Homo sapiens, UniProt O60307). The experiment in a line: Inhibition of MAST3 in human HeLa cells lysate pre incubated for 15 mins followed by ATP acyl phosphate probe addition and measured after 10 mins by LC-MS/MS analysis. The format is subcellular.
Test [5] deals with Serine/threonine-protein kinase PLK1 (Homo sapiens, UniProt P53350). The experiment in a line: Inhibition of PLK1 in human HeLa cells lysate at 10 uM pre incubated for 15 mins followed by ADP acyl phosphate probe addition and measured after 10 mins by LC-MS/MS analysis relative to control. The format is subcellular. To be noted: time 25.0 min.
Test [6] concerns the target T3, Serine/threonine-protein kinase tousled-like 1 (Homo sapiens) (UniProt Q9UKI8).
T3 sequence (whole entry): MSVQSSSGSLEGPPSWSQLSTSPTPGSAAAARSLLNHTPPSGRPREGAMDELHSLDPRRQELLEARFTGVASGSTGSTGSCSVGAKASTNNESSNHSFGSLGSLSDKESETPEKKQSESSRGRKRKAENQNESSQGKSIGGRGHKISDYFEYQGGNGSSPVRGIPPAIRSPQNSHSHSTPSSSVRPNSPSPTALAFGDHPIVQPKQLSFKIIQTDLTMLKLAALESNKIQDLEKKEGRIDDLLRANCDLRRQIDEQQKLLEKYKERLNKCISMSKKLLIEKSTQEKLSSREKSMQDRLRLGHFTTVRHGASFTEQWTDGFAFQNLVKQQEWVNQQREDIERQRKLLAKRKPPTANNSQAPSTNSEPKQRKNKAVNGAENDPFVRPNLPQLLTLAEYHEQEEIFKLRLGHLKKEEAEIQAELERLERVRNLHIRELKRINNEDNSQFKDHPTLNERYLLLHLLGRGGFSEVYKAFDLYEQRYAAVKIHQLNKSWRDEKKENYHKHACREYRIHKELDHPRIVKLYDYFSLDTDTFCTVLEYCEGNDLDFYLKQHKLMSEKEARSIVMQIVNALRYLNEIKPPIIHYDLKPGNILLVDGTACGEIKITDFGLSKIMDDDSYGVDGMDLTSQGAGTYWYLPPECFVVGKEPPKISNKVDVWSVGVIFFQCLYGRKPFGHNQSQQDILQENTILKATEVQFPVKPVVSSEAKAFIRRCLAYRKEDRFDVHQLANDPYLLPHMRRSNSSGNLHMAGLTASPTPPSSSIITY
The experiment in a line: Inhibition of TLK1 in human HeLa cells lysate at 50 uM pre incubated for 15 mins followed by ADP acyl phosphate probe addition and measured after 10 mins by LC-MS/MS analysis relative to control. The format is subcellular. The settings on record: time 25.0 min.

For test [7], the target named is Mitogen-activated protein kinase 14 (Homo sapiens, UniProt Q16539). The test is described as follows: Inhibition of P38alpha interaction site in human HeLa cells lysate at 2 uM pre incubated for 15 mins followed by ATP acyl phosphate probe addition and measured after 10 mins by LC-MS/MS analysis relative to control. It counts as subcellular. The settings on record: time 25.0 min.

The target in test [8] is Glycogen synthase kinase-3 beta (Homo sapiens, UniProt P49841). The experiment in a line: Inhibition of GSK3B isoform 2 in human HeLa cells lysate pre incubated for 15 mins followed by ATP acyl phosphate probe addition and measured after 10 mins by LC-MS/MS analysis. The format is subcellular.
The nature of test [9]: Inhibition of KHS1/2 in human HeLa cells lysate at 10 uM pre incubated for 15 mins followed by ATP acyl phosphate probe addition and measured after 10 mins by LC-MS/MS analysis relative to control. The settings on record: 25 min, condition cancer.
Test [10] has as its target Ribosomal protein S6 kinase beta-1 (Homo sapiens, UniProt P23443). The experiment in a line: Inhibition of P70S6K in human HeLa cells lysate at 2 uM pre incubated for 15 mins followed by ATP acyl phosphate probe addition and measured after 10 mins by LC-MS/MS analysis relative to control. It counts as subcellular. The settings on record: time 25.0 min.
The target in test [11] is Ribosomal protein S6 kinase alpha-1 (Homo sapiens, UniProt Q15418). The test is described as follows: Inhibition of RSK1 domain 2 in human HeLa cells lysate at 50 uM pre incubated for 15 mins followed by ATP acyl phosphate probe addition and measured after 10 mins by LC-MS/MS analysis relative to control. To be noted: time 25.0 min. The format is subcellular.
Chain of Ribosomal protein S6 kinase alpha-1 (Q15418 whole entry, the tested form may be a part): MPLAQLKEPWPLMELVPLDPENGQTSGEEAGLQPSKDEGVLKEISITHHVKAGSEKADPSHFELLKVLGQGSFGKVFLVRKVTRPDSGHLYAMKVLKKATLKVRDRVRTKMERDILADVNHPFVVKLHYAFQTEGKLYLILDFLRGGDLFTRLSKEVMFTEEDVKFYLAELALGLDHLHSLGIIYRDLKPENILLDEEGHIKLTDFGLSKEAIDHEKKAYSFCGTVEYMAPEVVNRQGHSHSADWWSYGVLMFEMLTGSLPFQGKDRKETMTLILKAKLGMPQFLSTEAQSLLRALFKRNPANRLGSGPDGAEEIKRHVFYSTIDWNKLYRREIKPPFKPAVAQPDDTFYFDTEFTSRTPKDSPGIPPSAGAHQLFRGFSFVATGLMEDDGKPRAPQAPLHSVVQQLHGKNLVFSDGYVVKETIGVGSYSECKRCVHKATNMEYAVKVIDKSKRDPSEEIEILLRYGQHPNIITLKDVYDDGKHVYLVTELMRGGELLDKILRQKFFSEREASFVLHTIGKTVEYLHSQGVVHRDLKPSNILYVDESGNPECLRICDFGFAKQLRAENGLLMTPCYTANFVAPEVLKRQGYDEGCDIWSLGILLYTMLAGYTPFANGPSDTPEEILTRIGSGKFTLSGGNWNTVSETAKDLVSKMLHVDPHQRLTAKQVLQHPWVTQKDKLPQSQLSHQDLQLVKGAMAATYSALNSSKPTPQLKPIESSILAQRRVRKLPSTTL

Chain of Microtubule-associated serine/threonine-protein kinase 3 (O60307 whole entry): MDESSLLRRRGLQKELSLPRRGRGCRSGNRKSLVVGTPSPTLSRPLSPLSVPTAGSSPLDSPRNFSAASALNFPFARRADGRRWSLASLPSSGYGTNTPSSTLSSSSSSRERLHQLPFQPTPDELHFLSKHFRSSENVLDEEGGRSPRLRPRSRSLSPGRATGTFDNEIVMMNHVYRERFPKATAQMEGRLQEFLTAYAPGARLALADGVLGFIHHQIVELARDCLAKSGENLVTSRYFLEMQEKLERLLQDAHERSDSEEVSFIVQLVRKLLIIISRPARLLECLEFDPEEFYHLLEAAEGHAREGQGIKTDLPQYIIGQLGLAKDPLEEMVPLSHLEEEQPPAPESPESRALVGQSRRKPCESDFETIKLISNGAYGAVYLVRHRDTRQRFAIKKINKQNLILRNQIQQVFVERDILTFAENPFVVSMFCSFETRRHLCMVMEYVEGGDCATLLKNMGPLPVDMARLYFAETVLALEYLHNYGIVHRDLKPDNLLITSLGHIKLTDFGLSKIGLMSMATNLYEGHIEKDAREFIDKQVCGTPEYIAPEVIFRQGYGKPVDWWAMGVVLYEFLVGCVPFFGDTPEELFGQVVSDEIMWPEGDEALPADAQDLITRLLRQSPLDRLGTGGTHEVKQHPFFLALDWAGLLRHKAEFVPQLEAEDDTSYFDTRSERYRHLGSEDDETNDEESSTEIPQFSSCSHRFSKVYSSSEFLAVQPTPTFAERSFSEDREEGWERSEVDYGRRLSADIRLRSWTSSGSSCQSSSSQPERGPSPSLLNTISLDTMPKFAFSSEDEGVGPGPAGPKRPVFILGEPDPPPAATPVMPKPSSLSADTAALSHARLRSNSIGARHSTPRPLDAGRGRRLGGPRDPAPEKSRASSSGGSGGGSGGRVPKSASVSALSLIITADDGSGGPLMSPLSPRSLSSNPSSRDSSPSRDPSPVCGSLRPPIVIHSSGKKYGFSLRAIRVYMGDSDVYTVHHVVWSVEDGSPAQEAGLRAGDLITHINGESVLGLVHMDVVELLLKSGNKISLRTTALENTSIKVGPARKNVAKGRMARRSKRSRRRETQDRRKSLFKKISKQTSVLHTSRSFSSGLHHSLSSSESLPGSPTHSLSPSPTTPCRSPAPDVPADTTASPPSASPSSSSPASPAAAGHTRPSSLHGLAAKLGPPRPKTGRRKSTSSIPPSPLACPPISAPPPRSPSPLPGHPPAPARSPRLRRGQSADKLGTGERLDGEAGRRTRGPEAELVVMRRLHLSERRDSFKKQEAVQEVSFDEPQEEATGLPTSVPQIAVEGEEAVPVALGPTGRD
Chain of Glycogen synthase kinase-3 beta (P49841 whole entry, canonical isoform): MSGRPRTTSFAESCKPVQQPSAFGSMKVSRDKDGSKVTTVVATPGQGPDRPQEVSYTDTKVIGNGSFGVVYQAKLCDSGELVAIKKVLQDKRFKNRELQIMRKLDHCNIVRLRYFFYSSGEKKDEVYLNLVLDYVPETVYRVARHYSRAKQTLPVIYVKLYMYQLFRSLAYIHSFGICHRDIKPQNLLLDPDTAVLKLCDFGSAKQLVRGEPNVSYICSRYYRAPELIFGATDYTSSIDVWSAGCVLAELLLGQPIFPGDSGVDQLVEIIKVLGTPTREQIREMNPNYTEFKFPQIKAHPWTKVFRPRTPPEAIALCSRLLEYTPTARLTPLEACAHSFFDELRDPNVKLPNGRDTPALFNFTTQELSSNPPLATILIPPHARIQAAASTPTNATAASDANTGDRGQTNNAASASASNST
Chain of Ribosomal protein S6 kinase beta-1 (P23443 whole entry, looked up, the tested form may be a part): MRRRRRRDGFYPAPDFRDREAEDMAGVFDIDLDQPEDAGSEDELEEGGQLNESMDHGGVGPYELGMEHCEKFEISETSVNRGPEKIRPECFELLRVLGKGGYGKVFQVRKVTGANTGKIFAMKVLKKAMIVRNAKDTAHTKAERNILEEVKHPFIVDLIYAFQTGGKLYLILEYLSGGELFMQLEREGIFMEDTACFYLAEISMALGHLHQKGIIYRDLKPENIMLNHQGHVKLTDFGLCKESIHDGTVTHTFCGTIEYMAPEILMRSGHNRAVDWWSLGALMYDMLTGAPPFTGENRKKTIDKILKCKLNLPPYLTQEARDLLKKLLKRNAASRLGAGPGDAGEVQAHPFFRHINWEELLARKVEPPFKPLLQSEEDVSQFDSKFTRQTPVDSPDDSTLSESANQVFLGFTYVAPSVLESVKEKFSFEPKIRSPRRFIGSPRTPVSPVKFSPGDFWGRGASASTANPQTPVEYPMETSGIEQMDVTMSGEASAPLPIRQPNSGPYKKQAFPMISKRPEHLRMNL
Chain of Mitogen-activated protein kinase 14 (Q16539 whole entry): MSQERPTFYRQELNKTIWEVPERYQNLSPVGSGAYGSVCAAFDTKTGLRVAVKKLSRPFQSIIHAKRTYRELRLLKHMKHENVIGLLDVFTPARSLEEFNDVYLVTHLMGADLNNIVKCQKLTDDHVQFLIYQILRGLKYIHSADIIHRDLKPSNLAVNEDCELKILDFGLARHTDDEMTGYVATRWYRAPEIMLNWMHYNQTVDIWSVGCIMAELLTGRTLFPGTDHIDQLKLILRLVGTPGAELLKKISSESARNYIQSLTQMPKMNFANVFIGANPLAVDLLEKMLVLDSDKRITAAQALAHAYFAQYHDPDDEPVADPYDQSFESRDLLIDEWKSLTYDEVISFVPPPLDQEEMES
Chain of Serine/threonine-protein kinase PLK1 (P53350 whole entry): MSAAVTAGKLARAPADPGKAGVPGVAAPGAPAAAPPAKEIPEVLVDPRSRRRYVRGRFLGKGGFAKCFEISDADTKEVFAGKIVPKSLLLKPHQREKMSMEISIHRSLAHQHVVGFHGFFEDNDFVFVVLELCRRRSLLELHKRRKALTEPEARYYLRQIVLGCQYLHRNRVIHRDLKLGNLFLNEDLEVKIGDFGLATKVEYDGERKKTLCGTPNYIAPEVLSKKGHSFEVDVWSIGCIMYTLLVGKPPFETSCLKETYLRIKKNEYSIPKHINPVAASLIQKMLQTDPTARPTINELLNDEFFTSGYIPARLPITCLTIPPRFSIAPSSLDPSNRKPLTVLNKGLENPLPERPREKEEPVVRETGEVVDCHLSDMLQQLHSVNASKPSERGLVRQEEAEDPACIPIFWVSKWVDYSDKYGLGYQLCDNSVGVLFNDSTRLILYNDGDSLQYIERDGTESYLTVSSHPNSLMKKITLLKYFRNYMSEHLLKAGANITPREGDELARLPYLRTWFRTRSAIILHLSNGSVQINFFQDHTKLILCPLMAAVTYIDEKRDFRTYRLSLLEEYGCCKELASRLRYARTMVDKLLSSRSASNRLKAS

`CCOc1cc(N2CCC(O)CC2)ccc1Nc1ncc2c(n1)N(C)c1ccccc1C(=O)N2C`: the inhibition in test [1] is -8.4%; in test [2], 23.1%; in test [5], -0.6%; in [6] it was -4.5%; in test [7] it was -9.5%; in test [10], 7%. Besides, the inhibition in test [11] is 73.1%. The inhibition at 10 µM in test [3] was -6.3%; in [9], -11.1%. The IC50 in [4] and in [8] was over 50 µM in each case.
